Measurements: PubChem BioAssay (NCI)
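How tested: cells in 96-well plates exposed to compound for 48 hours at five concentrations. GI50: concentration for 50% inhibition of growth. The concentration for full growth arrest is given as TGI.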

Experiments:
Assay in all cases: NCI-60 cell line screen, 48 h
[1] = system: CAKI-1 renal
[2] = system: COLO 205 colon
[3] = system: HCT-116 colon
[4] = system: MCF7 breast
[5] = system: NCI-H23 lung
[6] = system: RXF 393 renal
[7] = system: SNB-75 CNS
[8] = system: TK-10 renal
[9] = system: UACC-257 melanoma
[10] = system: UO-31 renal

SMILES | TGI [1] [µM] | TGI [2] [µM] | TGI [3] [µM] | TGI [4] [µM] | TGI [5] [µM] | TGI [6] [µM] | TGI [7] [µM] | TGI [8] [µM] | TGI [9] [µM] | TGI [10] [µM] | GI50 [1] [µM] | GI50 [2] [µM] | GI50 [3] [µM] | GI50 [4] [µM] | GI50 [5] [µM] | GI50 [6] [µM] | GI50 [7] [µM] | GI50 [8] [µM] | GI50 [9] [µM] | GI50 [10] [µM]
O=C(O)/C(Cl)=C(/Cl)C(=O)Nc1cccc(Cl)c1 | 16.3 | 23.3 | 31.8 | 62.8 | 36.4 | 30 | 40.1 | 33.8 | 47 | 37.4 | – | – | – | – | – | – | – | – | – | –
O=Cc1ccc(C(F)(F)F)cc1.[C-]#[O+].[C-]#[O+].[C-]#[O+].[Cr] | > 100 | > 100 | 38.7 | > 100 | > 100 | 66.6 | 49.5 | > 100 | > 100 | 48.5 | 24.6 | 27.4 | 16.7 | 24.7 | 37.1 | 18.6 | 15.6 | 25.9 | 58.2 | 16
COc1ccc(C(=O)Nc2cccc(C3CC(=O)c4c(cc(OC)c(OC)c4OC)O3)c2)cc1 (stereo not drawn) | > 100 | 6.57 | > 100 | 56.4 | > 100 | 5.48 | 8.35 | > 100 | 56 | > 100 | 1.58 | 2.39 | 0.381 | 0.466 | 2.63 | 1.64 | 1.35 | 7.28 | 11.6 | 1.33
O=C1NC(=NCCc2ccccc2Cl)S/C1=C\c1ccc2ncccc2c1 | > 14.8 | > 25 | > 25 | > 25 | > 25 | > 25 | > 14.9 | > 20.1 | > 25 | > 25 | 3.3 | 3.98 | 0.936 | 1.32 | 6.06 | 4.85 | 1.7 | 3.79 | 11.2 | 5.13
CCCCCCCCSC1=CC(=O)C(OC)=C(OC)C1=O | 54.6 | 14.6 | 2.54 | 14.1 | 16.2 | 3.46 | 16.7 | 3.95 | 4.17 | 3.31 | 6.11 | 4.17 | 1.19 | 1.91 | 3.36 | 1.61 | 2.21 | 2.06 | 1.67 | 1.77
Cc1c2c(nn1-c1ccc(S/N=C3\SCC(=O)CN3c3ccccc3)cc1)-c1ccccc1CC2 | > 50 | > 50 | 15.9 | 36.7 | > 50 | > 50 | > 50 | > 50 | > 50 | > 50 | 18.1 | > 50 | 6.5 | 7.79 | 32.3 | 31.5 | > 50 | > 50 | 45.3 | 28.4
NCCOc1ccccn1 | > 100 | > 100 | > 100 | > 100 | > 100 | > 100 | > 100 | > 100 | > 100 | > 100 | – | – | – | – | – | – | – | – | – | –
CC1SC(c2cccs2)N(NC(=O)C(O)c2ccccc2)C1=O (stereo not drawn) | > 100 | > 100 | > 100 | > 100 | > 100 | > 100 | > 100 | > 100 | > 100 | > 100 | > 100 | > 100 | > 100 | > 100 | > 100 | > 100 | > 100 | > 100 | > 100 | > 100
CC(C)(C)c1ccc(-c2nnc(SCc3ccc(Cl)cc3)n2-c2cccc(C(F)(F)F)c2)cc1 | > 100 | 23.4 | > 100 | > 100 | > 100 | > 100 | > 94.1 | > 100 | > 72.6 | 34.2 | – | – | – | – | – | – | – | – | – | –
C[n+]1c2ccccc2c(NC2CCNCC2)c2[nH]c3ccccc3c21 | 7.09 | 2 | 4.53 | 2.2 | 0.88 | 0.46 | 2.72 | 8.53 | 23.7 | 43.7 | – | 0.264 | 0.812 | 0.231 | 0.0944 | – | 0.524 | 2.33 | 5.41 | 13.9
